Reference: US8795222B2, “Device and method for treatment of surface infections with nitric oxide” (Pulmonox Technologies Corp., priority 2000, dated 2014)

What was measured:
MRSA = experiment: Bacteriocidal time study, 200 ppm gNO, saline suspension; format: cell-based, Methicillin Resistant S. aureus
Description: (§1) Following the dose and time ranging studies, a series of experiments were performed to determine the time required to effectively induce a bacteriocidal effect with 200 parts per million of gNO, a concentration just above the dose used in the dose-ranging study, on a representative collection of drug resistant gram-positive and gram-negative strains of bacteria associated with clinical infection. A successful bacteriocidal effect was defined as a decrease in bacteria greater than 3 log10 cfu/ml. Further, C. albicans, Methicillin Resistant S. aureus (MRSA), a particularly resistant strain of P. aeruginosa from a cystic fibrosis patient, Group B Streptococcus, and M. smegmatis were also included to see if yeast, multi-drug resistant strains of bacteria, and actinomycetes have a similar response. The drug-resistant bacteria represent a variety of pathogens that contribute to both respiratory and wound infections.
(§2) For these experiments, saline was selected as a suspension media because it would not mask the direct effect of gNO as a bacteriocidal, whereas fully supplemented growth medium might introduce external variables (e.g., buffer or react with gNO). Other media might also provide metabolites and replenish nutrients that produce enzymes that protect bacteria from oxidative and nitrosative damage, thereby masking the effect of gNO. […] In saline, the colonies were static but remained viable. This is similar to the approach of Webert and Jean's use of animal models. Webert K E, et al (2000), Effects of inhaled nitric oxide in a rat model of Pseudomonas aeruginosa pneumonia, Crit. Care Med, 28(7):2397-2405 and Jean D, et al., (2002) Beneficial effects of nitric oxide inhalation on pulmonary bacterial clearance, Critical Care Medicine. 30(2):442-7.
(§3) The latent period was then followed by an abrupt death of all cells. Gram negative and gram positive bacteria, antibiotic resistant bacterial strains, yeast and mycobacteria were all susceptible to 200 ppm gNO. Of importance, is the observation that the two drug resistant bacteria strains were also susceptible.

Mycobacterium = experiment: as above; format: cell-based, M. smegmatis
Description: as §1, §2
as §3, with “susceptible. […]” for “susceptible.”

collagen mRNA = experiment: mRNA expression after gNO exposure; format: cell-based
Excerpt: Rather than applying exogenous collagenase for enzymatic debridement of necrotic tissue, exposing a wound with necrotic tissue to exogenous NO gas to upregulate endogenous collagenase may be more beneficial. When endogenous collagenase is released by the cell, it automatically releases TIMP's (tissue inhibitor of metalloproteinase). This ensures that the matrix degradation is coordinated and allows the establishment of sharp geographical boundaries of collagenolytic activity and the protection of areas of connective tissue from the activity of the enzyme. In contrast, use of exogenous collagenase material to debride a wound confers no protection to specific areas of the wound as it is active on every cell that comes in contact with it whether or not the effect is desired.
Preferably, after the exposure of the wound to high concentration of nitric oxide gas for a first treatment period (e.g., 5-8 hours per day), the necrotic tissue may be mechanically removed easily and the concentration of nitric oxide gas can be decreased for a second treatment period. The low concentration of nitric oxide gas (e.g., at 5-20 ppm) delivered for the second treatment period may upregulate the expression of collagen mRNA leading to synthesis of new collagen to aid in the closure of the wound. […] The second treatment period may be for a period 7-16 hours per day. […]

[1] = test system: full thickness infected wound; experiment: Histology of full thickness infected wound biopsies; format: in vivo, rabbits; settings: 200 ppm gNO
Description: FIG. 13 illustrates histology analysis of full thickness infected wound exposed to 200 ppm gNO for 24 hours.
In vivo studies in animal models have further shown the beneficial effects of nitric oxide gas. In an animal model, full-thickness cutaneous wounds (Set A: four rabbits with eight 8.0 mm punch biopsies & Set B: 4 rabbits with two 50×15 mm wounds) were made on each side of dorsal midline and infected with equal volume of Staphylococcus aureus suspension on day zero. On day one, treated groups in A and B were respectively exposed to 200 and 400 ppm gNO for total of three days. Set A was exposed for two 4-hour sessions, interrupted by 1-hour of rest, inside a specialized restraining exposure chamber. A 24-hour continuous delivery model was used for animals in Set B by design of a specialized wound patch. Control groups were only exposed to medical grade air with corresponding flow rate. Four random sample punch biopsies (8.0 mm) were collected on post wounding days 3 and analyzed for bacterial content. Another four punch biopsies from both wound and normal skin tissue were collected for fibroblast viability analysis and toxic effects of gNO.
FIG. 13 presents histological analysis of tissue blocks prepared on wound punch biopsies from animals in treated and control groups. Samples from the control group show more advanced neutrophil infiltration and so a higher degree of inflammatory reaction. […] Wounds treated with gNO also show a layer of scab closing on the wound, but control wounds remain open for longer period of time.

[2] = test system: all microorganisms tested; experiment: Bacteriocidal time study, 200 ppm gNO, saline suspension, all organisms together; format: cell-based
Description: as §1, §2, §3

[3] = average of the 13 bacteria listed above it, without Mycobacterium

SMILES: [N]=O [gNO, nitric oxide]
- LD100 (MRSA): 5 h
- Latent Period* (MRSA): 3 h
- −2.5 Log10 (MRSA; time to −2.5 log10 cfu/ml): 4.2 hrs
- LD100 (Mycobacterium): 10 h
- Latent Period* (Mycobacterium): 7 h
- −2.5 Log10 (Mycobacterium; time to −2.5 log10 cfu/ml): 9.2 hrs
- collagen mRNA expression (collagen mRNA; fibroblast exposed to 5 ppm of NO): increased collagen mRNA expression
- collagen expression (collagen mRNA; high concentration, 200 ppm gNO, 24 hours and 48 hours): possible inhibition of collagen expression
- toxic effects (cellular debris due to apoptosis), histology [1]: No toxic effects
- healing process, histology ([1]; compared with control wounds): healthier healing process
- neutrophil infiltration in wound ([1]; compared with control wounds): lower level of neutrophil concentration
- bacteriocidal effect [2]: completely bacteriocidal effect
- LD100, Average [2, 3]: 4.77 h
- Latent Period*, Average [2, 3]: 2.77 h
- −2.5 Log10, Average [2, 3]: 3.82 hrs
- reduction in cfu/ml ([2]; every bacteria challenged): at least a three log10 reduction
